Data on 54 molecules can be found in US10590086B2, “Pharmaceutical compound” (IOmet Pharma Ltd., priority 2014, dated 2020).

In one assay the target is TDO (Homo sapiens, UniProt P48775). In words: A172 kynurenine cell-based assay. More on the design: This assay utilised cancer cells which expressed either TDO or IDO; endogenous in cells; host or cells: A172 (human glioblastoma). As to conditions: A172 human glioblastoma cells, 48 hours, 500 μM L-tryptophan; read-out: A172 Kynurenine cell based assay pIC50 (converted). As to the method:
(§1) Exemplary compounds of the invention were prepared, and tested to determine their effect as TDO and/or IDO inhibitors. Two different assays were employed: 1. a cell-based assay for detecting the effect of test compounds on kynurenine production in two different cancer cell types. This assay utilised cancer cells which expressed either TDO or IDO and as such was used as a means of testing compound activity at these two enzymes in a cell-based context. 2. a TDO and IDO biochemical coupled assay which utilised recombinantly produced and purified TDO and IDO enzymes in combination with the enzyme formamidase. This coupled enzyme system allowed conversion of N-formylkynurenine produced by TDO or IDO activity to kynurenine which was then quantified by fluorescence following addition of Erhlich's Reagent The protocols for these are set out below.
(§2) Cell Based Assay for Detection of Kynurenine Produced by TDO and/or IDO
(§3) A172 (human glioblastoma) and SKOV3 (human ovarian adenocarcinoma) cells were seeded in a 96 well plate at 30,000 or 40,000 cells per well respectively in phenol red-free RPMI supplemented with 10% FCS, 2 mM L-glutamine and 500 μM L-tryptophan. IDO expression was induced in the SKOV3 cells by the addition of 500 ng/ml IFN-γ. Cells were incubated at 37° C. with or without the addition of test compound. After 48 hours, the cells were removed by centrifugation and Erhlich's reagent was added to the supernatant. The Erhlich's reagent was incubated for 5 minutes before the absorbance was read at 490 nm.

A further assay deals with IDO (Homo sapiens, UniProt P14902). Description: SKOV3 kynurenine cell-based assay (IDO induced by IFN-γ). On the set-up: IDO expression was induced in the SKOV3 cells by the addition of 500 ng/ml IFN-γ; endogenous in cells; host or cells: SKOV3 (human ovarian adenocarcinoma), induced with IFN-γ. To be noted: SKOV3 human ovarian adenocarcinoma cells, 500 ng/ml IFN-γ, 48 hours, 500 μM L-tryptophan; read-out: SKOV3 Kynurenine cell based assay pIC50 (converted). On the procedure:
as §1, §2, §3

IDO, sequence (P14902 whole entry): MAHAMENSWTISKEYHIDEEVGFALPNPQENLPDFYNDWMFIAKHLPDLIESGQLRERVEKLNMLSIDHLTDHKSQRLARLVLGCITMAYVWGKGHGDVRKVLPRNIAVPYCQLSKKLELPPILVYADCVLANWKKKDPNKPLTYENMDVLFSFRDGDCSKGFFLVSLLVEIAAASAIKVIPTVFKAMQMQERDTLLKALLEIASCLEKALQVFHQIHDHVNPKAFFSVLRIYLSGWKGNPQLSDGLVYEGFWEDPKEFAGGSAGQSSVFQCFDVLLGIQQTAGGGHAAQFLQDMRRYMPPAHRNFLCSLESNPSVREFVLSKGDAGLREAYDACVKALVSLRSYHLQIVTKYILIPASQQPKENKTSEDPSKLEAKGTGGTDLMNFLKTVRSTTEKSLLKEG
TDO, sequence (P48775 whole entry): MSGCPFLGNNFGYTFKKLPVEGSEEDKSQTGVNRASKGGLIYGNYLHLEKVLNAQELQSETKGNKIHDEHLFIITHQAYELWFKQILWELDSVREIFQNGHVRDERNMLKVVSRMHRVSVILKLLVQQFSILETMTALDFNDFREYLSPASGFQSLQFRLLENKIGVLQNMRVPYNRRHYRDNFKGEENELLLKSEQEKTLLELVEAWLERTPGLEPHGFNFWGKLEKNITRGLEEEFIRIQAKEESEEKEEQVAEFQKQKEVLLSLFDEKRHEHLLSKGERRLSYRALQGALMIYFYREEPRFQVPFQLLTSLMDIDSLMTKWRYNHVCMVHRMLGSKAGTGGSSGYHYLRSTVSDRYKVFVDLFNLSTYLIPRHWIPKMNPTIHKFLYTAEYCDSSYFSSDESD

Consider `CC1(C)CN(c2cc(C3CCCC3)cc3[nH]ncc23)CCN1S(C)(=O)=O` [Compound 148], for which the IC50 at TDO was 3.24 to 31.6 µM; at IDO, 32.4 to 100 µM.
As to `CS(=O)(=O)N1CCN(c2cccc3c(N)noc23)CC1` [Compound 120], the IC50 at TDO is above 100 µM; on IDO, 3.24 to 31.6 µM.
As for `CC(=O)N1CCCN(c2cc(Cl)cc3[nH]ncc23)CC1` [Compound 71], the IC50 at TDO is below 3.16 µM; on IDO it was 3.24 to 31.6 µM.
As to `NS(=O)(=O)N1CCN(c2cccc3[nH]ncc23)CC1` [Compound 20], the IC50 on TDO and at IDO was 3.24 to 31.6 µM throughout.
On to `O=C(CO)N1CCC(c2cc(Cl)cc3[nH]ncc23)CC1` [Compound 167], for which the IC50 was below 3.16 µM at TDO and 3.24 to 31.6 µM on IDO.
Turning to `CS(=O)(=O)N1CCC(c2cc(C3CC3)cc3[nH]ncc23)CC1` [Compound 87], the results for the IC50 on TDO and on IDO were below 3.16 µM and 3.24 to 31.6 µM, respectively.
In the case of `O=C(C1COC1)N1CCN(c2cc(Cl)cc3[nH]ncc23)CC1` [Compound 204], the IC50 was below 3.16 µM on TDO and above 100 µM at IDO.
Taken in the same sequence, the figures for `COc1cc(N2CCN(C(C)=O)CC2)c2cn[nH]c2c1` [Compound 70] were 3.24 to 31.6 µM and above 100 µM.
Take `COc1cc(N2CCN(S(C)(=O)=O)CC2)c2cn[nH]c2c1` [Compound 69]: the figures for the IC50 on TDO and on IDO were 3.24 to 31.6 µM and above 100 µM, respectively.
Regarding `CCc1cc(N2CCN(S(C)(=O)=O)CC2)c2cn[nH]c2c1` [Compound 158], the IC50 on TDO and on IDO was 3.24 to 31.6 µM each time.
Consider `CC1CN(c2cc(Cl)cc3[nH]ncc23)CCN1S(C)(=O)=O` (stereo not drawn) [Compound 73], for which the IC50 on TDO and at IDO was below 3.16 µM each time.
`CNC(=O)CN1CCN(c2cc(Cl)cc3[nH]ncc23)CC1` [Compound 59]: the results for the IC50 at TDO and on IDO were below 3.16 µM and 3.24 to 31.6 µM, respectively.
Turning to `CN1CC2CN(c3cc(Cl)cc4[nH]ncc34)CCN2C1=O` (stereo not drawn) [Compound 122], the IC50 on TDO is below 3.16 µM; on IDO, 3.24 to 31.6 µM.
On to `CC(=O)N1[C@H](C)CN(c2cc(Cl)cc3[nH]ncc23)C[C@@H]1C` [Compound 113], for which the figures for the IC50 at TDO and at IDO were below 3.16 µM and 3.24 to 31.6 µM, respectively.
Taken in the same sequence, the figures for `O=S(=O)(C1CCCC1)N1CCN(c2cc(Cl)cc3[nH]ncc23)CC1` [Compound 57] were below 3.16 µM and 3.24 to 31.6 µM.
Taken in the same sequence, the figures for `COCC(=O)N1CCC(c2cc(Cl)cc3[nH]ncc23)CC1` [Compound 176] were below 3.16 µM and 3.24 to 31.6 µM.
Consider `O=C(N1CCN(c2cc(Cl)cc3[nH]ncc23)CC1)C1(O)CC1` [Compound 116], for which the IC50 is below 3.16 µM on TDO and 3.24 to 31.6 µM on IDO.
On to `O=S(=O)(C1CC1)N1CCN(c2cc(Cl)cc3[nH]ncc23)CC1` [Compound 54], for which the IC50 at TDO was below 3.16 µM; on IDO, 3.24 to 31.6 µM.
`CNS(=O)(=O)N1CCC(c2cc(Cl)cc3[nH]ncc23)CC1` [Compound 172]: the IC50 on TDO is below 3.16 µM; on IDO it was 3.24 to 31.6 µM.
On to `CN(C)C(=O)N1CCC(c2cc(Cl)cc3[nH]ncc23)CC1` [Compound 132], for which the IC50 on TDO is below 3.16 µM; on IDO it was 3.24 to 31.6 µM.
Take `CC(C)c1cc(N2CCN(S(C)(=O)=O)CC2)c2cn[nH]c2c1` [Compound 67]: the figures for the IC50 at TDO and at IDO were 3.24 to 31.6 µM and 32.4 to 100 µM, respectively.
Consider `CC(=O)N1CCN(c2cc(C(F)(F)F)cc3[nH]ncc23)CC1` [Compound 48], for which the IC50 at TDO is below 3.16 µM; at IDO, 3.24 to 31.6 µM.
On to `CN(CC1CCN(c2cc(Cl)cc3[nH]ncc23)CC1)S(C)(=O)=O` [Compound 130], for which the values for the IC50 at TDO and on IDO were below 3.16 µM and 3.24 to 31.6 µM, respectively.
The like results for `CC(=O)N1CCN(c2cc(F)cc3[nH]ncc23)CC1` [Compound 51] were, in that order, 3.24 to 31.6 µM and above 100 µM.
As for `CS(=O)(=O)N1CCC(F)(c2cc(Cl)cc3[nH]ncc23)CC1` [Compound 124], the IC50 was below 3.16 µM on TDO and 3.24 to 31.6 µM on IDO.
The like results for `O=C1NCCC12CCN(c1cc(Cl)cc3[nH]ncc13)CC2` [Compound 189] were, in that order, 3.24 to 31.6 µM and 3.24 to 31.6 µM.
With `CC(O)C(=O)N1CCN(c2cc(Cl)cc3[nH]ncc23)CC1` (stereo not drawn) [Compound 136], the IC50 was below 3.16 µM at TDO and 3.24 to 31.6 µM on IDO.
With `C[C@@H]1CN(S(C)(=O)=O)CCN1c1cc(Cl)cc2[nH]ncc12` [Compound 197], the figures for the IC50 on TDO and at IDO were below 3.16 µM and 3.24 to 31.6 µM, respectively.
With `CS(=O)(=O)N1CCN(c2cc(C3CCOCC3)cc3[nH]ncc23)CC1` [Compound 169], the IC50 is 3.24 to 31.6 µM on TDO and above 100 µM at IDO.
For the molecule `C[C@@H]1CN(c2cc(Cl)cc3[nH]ncc23)C[C@@H](C)N1S(C)(=O)=O` [Compound 102], the values for the IC50 on TDO and at IDO were below 3.16 µM and 3.24 to 31.6 µM, respectively.
As to `CC(=O)N1CCN(c2cc(C3CCCC3)cc3[nH]ncc23)CC1(C)C` [Compound 149], the IC50 on TDO and at IDO was 3.24 to 31.6 µM in each case.
For the molecule `O=S(=O)(Cc1ccccc1)N1CCC(c2cc(Cl)cc3[nH]ncc23)CC1` [Compound 115], the IC50 is below 3.16 µM at TDO and 3.24 to 31.6 µM on IDO.
The like results for `CC(=O)N1CCN(c2cc(Cl)cc3[nH]ncc23)CC12CCC2` [Compound 182] were, in that order, below 3.16 µM and 3.24 to 31.6 µM.
Taken in the same sequence, the figures for `CC(C)S(=O)(=O)N1CCN(c2cc(Cl)cc3[nH]ncc23)CC1` [Compound 61] were below 3.16 µM and 3.24 to 31.6 µM.
As to `C[C@@H]1CN(S(C)(=O)=O)CCN1c1cc(C(F)(F)F)cc2[nH]ncc12` [Compound 208], the IC50 on TDO is below 3.16 µM; on IDO, 3.24 to 31.6 µM.
With `CC1(C)CN(c2cc(C3CC3)cc3[nH]ncc23)CCN1S(C)(=O)=O` [Compound 127], the IC50 on TDO is below 3.16 µM; at IDO, 3.24 to 31.6 µM.
As for `CC1(C)CN(c2cc(-c3ncco3)cc3[nH]ncc23)CCN1S(C)(=O)=O` [Compound 171], the IC50 was 3.24 to 31.6 µM at TDO and above 100 µM at IDO.
The like results for `COCCS(=O)(=O)N1CCN(c2cccc3[nH]ncc23)CC1` [Compound 23] were, in that order, above 100 µM and 32.4 to 100 µM.
As to `CS(=O)(=O)N1CCN(c2cc(Br)cc3[nH]ncc23)CC1` [Compound 96], the figures for the IC50 on TDO and on IDO were below 3.16 µM and 3.24 to 31.6 µM, respectively.
For the molecule `Clc1cc(N2CCN(c3ccccc3)CC2)c2cn[nH]c2c1` [Compound 92], the values for the IC50 at TDO and at IDO were below 3.16 µM and 3.24 to 31.6 µM, respectively.
Regarding `O=C1NCC2CN(c3cc(Cl)cc4[nH]ncc34)CCN12` (stereo not drawn) [Compound 88], the IC50 at TDO was below 3.16 µM; at IDO, 3.24 to 31.6 µM.
Taken in the same sequence, the figures for `CS(=O)(=O)N1CCC(Oc2cc(Cl)cc3[nH]ncc23)CC1` [Compound 159] were 3.24 to 31.6 µM and 3.24 to 31.6 µM.
Taken in the same sequence, the figures for `CS(=O)(=O)N1CCN(c2cc(N3CCCC3)cc3[nH]ncc23)CC1` [Compound 146] were 32.4 to 100 µM and above 100 µM.
Take `C[C@H]1CN(S(C)(=O)=O)CCN1c1cc(Cl)cc2[nH]ncc12` [Compound 200]: the IC50 at TDO is below 3.16 µM; at IDO, 3.24 to 31.6 µM.
Taken in the same sequence, the figures for `CC(C)C(=O)N1CCN(c2cc(Cl)cc3[nH]ncc23)CC1` [Compound 108] were below 3.16 µM and 3.24 to 31.6 µM.
`CC(=O)N1CCC(Oc2cccc3[nH]ncc23)CC1` [Compound 53]: the results for the IC50 on TDO and at IDO were 3.24 to 31.6 µM and below 3.16 µM, respectively.
`CS(=O)(=O)NCC1CCN(c2cc(Cl)cc3[nH]ncc23)CC1` [Compound 98]: the IC50 was below 3.16 µM on TDO and 3.24 to 31.6 µM at IDO.
For the molecule `CC(=O)Nc1cccc2[nH]ncc12` [Compound 6], the IC50 is 32.4 to 100 µM at TDO and above 100 µM at IDO.
For the molecule `CC(=O)N1CC=C(c2cc(Br)cc3[nH]ncc23)CC1` [Compound 128], the IC50 at TDO is below 3.16 µM; on IDO, 3.24 to 31.6 µM.
Consider `CC1(C)CC(c2cccc3[nH]ncc23)CCN1S(C)(=O)=O` (stereo not drawn) [Compound 187], for which the results for the IC50 on TDO and at IDO were 3.24 to 31.6 µM and 32.4 to 100 µM, respectively.
For `O=S1(=O)CCC2CN(c3cc(Cl)cc4[nH]ncc34)CCN21` (stereo not drawn) [Compound 89], the IC50 is below 3.16 µM at TDO and 3.24 to 31.6 µM at IDO.
Taken in the same sequence, the figures for `NS(=O)(=O)N1CCN(c2cc(Cl)cc3[nH]ncc23)CC1` [Compound 81] were below 3.16 µM and 3.24 to 31.6 µM.
For `CNC(=O)N1CCC(c2cc(Cl)cc3[nH]ncc23)CC1` [Compound 150], the results for the IC50 at TDO and on IDO were below 3.16 µM and 3.24 to 31.6 µM, respectively.
Taken in the same sequence, the figures for `O=C(N1CCC(c2cc(Cl)cc3[nH]ncc23)CC1)C1(O)CC1` [Compound 195] were below 3.16 µM and 3.24 to 31.6 µM.
